This is an account of results in US20250281479A1, “TREATMENT OF CAVERNOUS ANGIOMAS WITH A 4-SUBSTITUTED PIPERIDINE DERIVATIVE” (Neurelis, Inc., priority 2024, published 2025).

Format in all cases: in vitro ADME
The test system of data set [1] is mouse, monkey, and human hepatocytes. Kind of data set: incubation with hepatocytes (mouse, monkey, human). The method, then: (§1) Exposure to NRL-2017 was similar or greater (up to 5-fold) than that to NRL-1049 in rats when dosed once a day (QD). In monkeys, exposure to NRL-2017 was also greater (up to 33-fold) than that to NRL-1049. When rats were dosed twice a day (BID) for 14 days, there was a decrease in formation of NRL-2017 with exposure to NRL-2017 lower than that of NRL-1049 (ratio as low as 0.06). […] NRL-1049 bound to human serum albumin and human alpha1-acid glycoprotein. […] There was also inhibition of P-glycoprotein (P-gp) (only CACO-2 cells), organic anion transporting polypeptides (OATP) OATP1B1, OATP1B3 and OAT3 (IC50, >100 μM), but no effect on P-gp (MDCK2 cells), breast cancer resistance protein (BCRP), bile salt export pump (BSEP), or MATE2-K. NRL-1049 is a substrate for P-gp, not BCRP. […] This conclusion will be revisited when human pharmacokinetic (PK) data becomes available.

A further data set has as its system rat hepatocytes. Nature of the data set: incubation with rat hepatocytes. To be noted: two metabolites formed, NRL-2017 and an N-oxide. The method, then: as §1
The test system of a further data set is cytochrome P450 (CYP). Nature of the data set: metabolite or time-dependent CYP inhibition. The method, then:
as §1

For a further data set, the target named is MATE1 (Homo sapiens, UniProt Q96FL8). Kind of data set: transporter inhibition. To be noted: one range printed for OAT1, OCT1, OCT2 and MATE1 together. The protocol:
as §1

The target of a further data set is OAT1 (Homo sapiens, UniProt Q4U2R8). Kind of data set: transporter inhibition. To be noted: one range printed for OAT1, OCT1, OCT2 and MATE1 together. The method, then:
as §1

A further data set concerns the target OAT3 (Homo sapiens, UniProt Q8TCC7). Kind of data set: transporter inhibition. The protocol: as §1
A further data set concerns the target OATP1B1 (Homo sapiens, UniProt Q9Y6L6). Kind of data set: transporter inhibition. The protocol:
as §1

A further data set has as its target OATP1B3 (Homo sapiens, UniProt Q9NPD5). Nature of the data set: transporter inhibition. The protocol: as §1
Another data set concerns the target OCT1 (Homo sapiens, UniProt O15245). Nature of the data set: transporter inhibition. The following applies: one range printed for OAT1, OCT1, OCT2 and MATE1 together. The method, then:
as §1

The next data set has as its target OCT2 (Homo sapiens, UniProt O15244). Kind of data set: transporter inhibition. The following applies: one range printed for OAT1, OCT1, OCT2 and MATE1 together. The method, then:
as §1

In data set [2] the target is T1, P-glycoprotein (P-gp) (only CACO-2 cells) (Homo sapiens, UniProt P08183).
T1 construct: endogenous in cells; host or cells: CACO-2 cells
Nature of the data set: transporter inhibition. The protocol:
as §1

The target in another data set is T2, P-gp (MDCK2 cells) (Homo sapiens, UniProt P08183).
T2 construct: host or cells: MDCK2 cells
Nature of the data set: transporter inhibition. The protocol:
as §1

Data set [3] addresses bile salt export pump (BSEP) (Homo sapiens, UniProt O95342). Kind of data set: transporter inhibition. The protocol: as §1
Data set [4] deals with breast cancer resistance protein (BCRP) (Homo sapiens, UniProt Q9UNQ0). Kind of data set: transporter inhibition. The method, then:
as §1

For a further data set, the target named is MATE2-K (Homo sapiens, UniProt Q86VL8). The protocol: as §1
The target in another data set is BCRP (Homo sapiens, UniProt Q9UNQ0). Nature of the data set: transporter substrate assessment. The protocol:
as §1

In the next data set the target is P-gp (Homo sapiens, UniProt P08183). Kind of data set: transporter substrate assessment. The protocol: as §1

A value given as a limit tells only on which side of the number the result lay.

T1 sequence (P08183 whole entry): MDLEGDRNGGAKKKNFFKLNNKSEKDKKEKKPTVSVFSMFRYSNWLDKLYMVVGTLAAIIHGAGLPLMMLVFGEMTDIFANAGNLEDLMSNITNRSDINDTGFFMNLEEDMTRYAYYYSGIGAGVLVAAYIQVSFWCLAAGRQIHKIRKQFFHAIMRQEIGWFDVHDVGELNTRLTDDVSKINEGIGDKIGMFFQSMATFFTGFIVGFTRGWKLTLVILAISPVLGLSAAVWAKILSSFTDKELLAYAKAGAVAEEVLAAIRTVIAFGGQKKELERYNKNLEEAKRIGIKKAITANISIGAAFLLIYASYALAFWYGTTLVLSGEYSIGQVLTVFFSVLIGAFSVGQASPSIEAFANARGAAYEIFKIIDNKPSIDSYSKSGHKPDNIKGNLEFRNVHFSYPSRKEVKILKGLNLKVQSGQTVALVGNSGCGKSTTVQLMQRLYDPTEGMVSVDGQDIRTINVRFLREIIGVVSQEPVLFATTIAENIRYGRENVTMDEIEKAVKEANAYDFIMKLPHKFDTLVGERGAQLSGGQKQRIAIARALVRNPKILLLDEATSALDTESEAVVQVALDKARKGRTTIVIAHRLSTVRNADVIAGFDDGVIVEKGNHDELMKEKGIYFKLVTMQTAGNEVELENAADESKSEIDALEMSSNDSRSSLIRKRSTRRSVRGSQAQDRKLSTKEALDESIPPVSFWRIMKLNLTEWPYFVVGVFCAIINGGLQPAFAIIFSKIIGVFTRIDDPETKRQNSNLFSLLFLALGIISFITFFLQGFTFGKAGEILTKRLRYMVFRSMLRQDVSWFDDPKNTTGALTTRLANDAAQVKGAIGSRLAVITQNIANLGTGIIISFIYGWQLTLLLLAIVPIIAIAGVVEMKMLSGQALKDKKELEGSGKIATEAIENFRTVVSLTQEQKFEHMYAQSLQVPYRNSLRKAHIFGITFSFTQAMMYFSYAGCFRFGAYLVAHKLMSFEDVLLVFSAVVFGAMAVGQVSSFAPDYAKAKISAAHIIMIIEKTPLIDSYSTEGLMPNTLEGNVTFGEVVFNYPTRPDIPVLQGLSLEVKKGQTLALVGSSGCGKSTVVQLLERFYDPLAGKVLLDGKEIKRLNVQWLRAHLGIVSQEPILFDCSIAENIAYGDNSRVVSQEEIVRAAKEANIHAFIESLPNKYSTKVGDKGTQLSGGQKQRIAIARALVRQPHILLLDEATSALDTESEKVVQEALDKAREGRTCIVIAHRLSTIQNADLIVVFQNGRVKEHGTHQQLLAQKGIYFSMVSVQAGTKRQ
T2 sequence (P08183 whole entry): as above
Chain of P-gp (P08183 whole entry): as above
Chain of OCT1 (O15245 whole entry): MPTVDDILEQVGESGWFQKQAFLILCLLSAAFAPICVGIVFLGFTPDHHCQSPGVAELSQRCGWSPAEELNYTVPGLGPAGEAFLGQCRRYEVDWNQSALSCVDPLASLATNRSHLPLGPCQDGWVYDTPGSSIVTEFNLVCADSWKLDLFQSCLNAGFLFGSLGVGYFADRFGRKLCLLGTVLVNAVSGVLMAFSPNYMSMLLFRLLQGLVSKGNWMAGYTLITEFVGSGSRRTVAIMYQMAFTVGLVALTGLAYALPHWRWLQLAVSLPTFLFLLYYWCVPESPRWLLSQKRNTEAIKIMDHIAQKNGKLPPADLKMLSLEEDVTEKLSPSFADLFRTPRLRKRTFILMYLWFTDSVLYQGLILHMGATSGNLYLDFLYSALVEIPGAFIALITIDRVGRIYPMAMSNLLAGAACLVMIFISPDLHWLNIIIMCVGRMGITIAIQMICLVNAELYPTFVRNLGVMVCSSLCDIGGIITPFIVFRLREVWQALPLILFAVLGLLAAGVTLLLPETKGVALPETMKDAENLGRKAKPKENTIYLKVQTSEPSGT
Chain of OATP1B3 (Q9NPD5 whole entry): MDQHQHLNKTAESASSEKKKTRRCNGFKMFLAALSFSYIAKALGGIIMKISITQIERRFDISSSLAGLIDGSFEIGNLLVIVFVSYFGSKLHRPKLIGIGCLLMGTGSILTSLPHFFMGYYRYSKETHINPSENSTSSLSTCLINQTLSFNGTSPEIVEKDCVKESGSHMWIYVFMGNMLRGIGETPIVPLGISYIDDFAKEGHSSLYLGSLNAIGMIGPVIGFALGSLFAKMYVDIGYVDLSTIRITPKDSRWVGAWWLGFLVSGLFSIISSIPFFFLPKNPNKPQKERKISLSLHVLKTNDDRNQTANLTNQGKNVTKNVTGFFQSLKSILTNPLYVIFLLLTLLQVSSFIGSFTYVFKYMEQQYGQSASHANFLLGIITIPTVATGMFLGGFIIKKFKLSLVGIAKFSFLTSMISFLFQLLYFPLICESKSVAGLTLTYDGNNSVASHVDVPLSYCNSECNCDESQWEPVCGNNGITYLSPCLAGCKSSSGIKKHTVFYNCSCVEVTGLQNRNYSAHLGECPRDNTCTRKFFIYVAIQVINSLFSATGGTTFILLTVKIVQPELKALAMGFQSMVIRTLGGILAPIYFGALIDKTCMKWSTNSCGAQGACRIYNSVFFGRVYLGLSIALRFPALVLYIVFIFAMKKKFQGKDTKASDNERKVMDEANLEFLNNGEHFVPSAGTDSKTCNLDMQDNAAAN

By IC50 is commonly meant the midpoint of a concentration-inhibition curve. A lower IC50 goes with higher potency. With `C[C@@H](N)C1CCN(S(=O)(=O)c2cccc3cnccc23)CC1` [NRL-1049], in [1], the clearance in hepatocytes result is “moderate to high clearance”. Further, the “clearance rate in hepatocytes” value with rat hepatocytes is recorded as “moderate”. In addition, in the data set on cytochrome P450 (CYP), the “metabolite or time-dependent inhibition” value is recorded as “no metabolite or time-dependent inhibition”. The IC50 against MATE1 was 8.54 to 66.2 µM; against OAT1, 8.54 to 66.2 µM; at OAT3 it was greater than 100 µM; against OATP1B1, greater than 100 µM; against OATP1B3, greater than 100 µM; against OCT1, 8.54 to 66.2 µM. Also, the figures for the half-maximal inhibitory concentration (IC50) (against OCT2; in [2]) were 8.54 to 66.2 µM and greater than 100 µM, respectively. In addition, the effect on transporter result (on P-gp (MDCK2 cells); in data set [3]; in data set [4]; at MATE2-K) was “no effect” in each case. For the same compound, the “substrate for BCRP” value at BCRP is “not BCRP”. On P-gp, the “substrate for P-gp” value was “substrate”.
